The results in this text go back to patent publication US10144714B2, “Methods of making protein deacetylase inhibitors” (Acetylon Pharmaceuticals, Inc., priority 2015, dated 2018).

Data set [1] can be described thus: Thermal gravimetric analysis (TGA). Type of data set: physicochemical. To be noted: from 35 to 150° C.; Form I. As for the experimental part: Thermal Gravimetric Analysis (TGA) data were collected using a TA Instruments TGA Q500. Approximately, 5-10 mg samples were placed in an open, pre-tared aluminum sample pan and scanned from 25 to 300° C. at a rate of 10° C./min using a nitrogen purge at 60 mL/min.

Data set [2] in a line: Dynamic vapor sorption (DVS) analysis. Type of data set: physicochemical. The note with it: relative humidity between 0-95 percent, Form I/Pattern A. On the procedure:
Dynamic Vapor Soprtion (DVS) analysis was performed using an Aquadyne DVS-2 gravimetric water sorption analyzer. The relative humidity was adjusted between 2-95% and the weight of the sample was continuously monitored and recorded with respect to the relative humidity and time.

With `O=C(CCCCCCNC(=O)c1cnc(N(c2ccccc2)c2ccccc2Cl)nc1)NO` [Compound (I), 2-((2-chlorophenyl)(phenyl)amino)-N-(7-(hydroxyamino)-7-oxoheptyl)pyrimidine-5-carboxamide], in data set [1], the weight loss entry was “less than 0.1%”. In data set [2] (after DVS), the “change in the crystalline form” value is “no change in the crystalline form”. The moisture uptake entry in data set [2] was “less than 0.2%”.
